Data: patent publication EP4574175A1, “PRODRUG FOR ANTI-AGING RELATED DISEASES AND USE METHOD THEREFOR” (BEIJING SUNCELL BIO-MEDICAL CO., LTD., priority 2022, dated 2024)
Where two headings read alike, the source gives them in different places.

Assays:
[1] = monkey, 1 µM
[2] = human, 1 µM
in vitro [3] = conditions: mouse
Procedure: […] Samples were taken and analyzed at time points 0, 15, 30, 45 and 60 minutes during the incubation. The reaction was terminated by adding an amount of acetonitrile solution containing the internal standard. […] The residual percentage, half-life, intrinsic clearance, amplified clearance, hepatic clearance and hepatic extraction ratio were determined. The entire experiment was performed in triplicate. All data calculations were performed by Microsoft Excel software. Peak areas were detected by extracting the ionic spectrum. The in vitro half-life (t1/2) of the parent compound was detected by fitting the natural logarithm of the percentage elimination of the parent compound linearly to time.
The in vitro intrinsic clearance (in µL/min/mg protein) was calculated using the following equation: in vitro CLint = kV/N
The amplified clearance (in mL/min/kg) was calculated using the following equation: Amplified CLint = kV/N × the amplification factor [formula]
The hepatic clearance (in mL/min/kg) was calculated using the following equation: The predicted hepatic CLH = (Q×Fu/RB×theamplifiedCLint)/([…]) [formula] • V = the incubation volume per well (0.2 mL); • N = the total amount of protein (mg) • Q = the hepatic blood flow (mL/min/kg) • Fu = the plasma free rate (assumed to be 1) • RB = the whole blood partition coefficient (assumed to be 1)
The hepatic […] was calculated using the following equation: The hepatic extraction ratio(ER) = (thepredictedhepaticCLH)/Q [formula]

in vitro [4] = conditions: dog
[5] = rat, 1 µM
in vitro [6] = conditions: rat
[7] = dog, 1 µM
in vitro [8] = conditions: human
in vitro [9] = conditions: monkey

O=c1ccc2ccc(O)cc2o1 [7-hydroxycoumarin]
The hepatic extraction ratio (E) [1]: 0.97
The hepatic extraction ratio (E) [2]: 0.97
CLint scaled at 1 µM (in vitro [3]): 87.8 mL/min/kg
The hepatic extraction ratio (E) (in vitro [3]; 1 µM): 0.98
CLint scaled at 1 µM (in vitro [3]; microsomes): 3630 mL/min/kg
half-life at 1 µM (in vitro [3]; microsomes): 1.68 min
microsomal CLint at 1 µM (in vitro [3]; microsomes): 824 µL/min/mg
CLint scaled at 1 µM (in vitro [4]): 30.4 mL/min/kg
CLint scaled at 1 µM (in vitro [4]; microsomes): 2050 mL/min/kg
half-life at 1 µM (in vitro [4]; microsomes): 1.68 min
microsomal CLint at 1 µM (in vitro [4]; microsomes): 824 µL/min/mg
The hepatic extraction ratio (E) [5]: 0.95
CLint scaled at 1 µM (in vitro [6]): 52.3 mL/min/kg
CLint scaled at 1 µM (in vitro [6]; microsomes): 1010 mL/min/kg
half-life at 1 µM (in vitro [6]; microsomes): 2.47 min
microsomal CLint at 1 µM (in vitro [6]; microsomes): 562 µL/min/mg
The hepatic extraction ratio (E) [7]: 0.99
CLint scaled at 1 µM (in vitro [8]): 20.2 mL/min/kg
CLint scaled at 1 µM (in vitro [8]; microsomes): 774 mL/min/kg
half-life at 1 µM (in vitro [8]; microsomes): 2.25 min
microsomal CLint at 1 µM (in vitro [8]; microsomes): 617 µL/min/mg
CLint scaled at 1 µM (in vitro [9]; The predicted intrinsic hepatic clearance Cl int): 42.1 mL/min/kg
half-life at 1 µM (in vitro [9]; microsomes): 1.72 min
microsomal CLint at 1 µM (in vitro [9]; microsomes): 806 µL/min/mg
CLint scaled at 1 µM (in vitro [9]; microsomes, The amplified intrinsic clearance Cl int): 1210 mL/min/kg
